Test results: ChEMBL document CHEMBL1201862, “PubChem BioAssay data set” (2004)
Structures can show the parent of a compound that is named as a salt.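 48-hour exposure; five concentrations; linearly interpolated endpoints. Here, GI50 denotes the concentration required for 50% inhibition of growth.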 Calls of active or inactive are those of the source. Rule as the data show it: active = GI50 up to about 1.1 µM and inactive = higher.

What was measured:
Test in all cases: NCI anticancer screen, dose series, 48 h
PC-3 = test system: PC-3
CCRF-CEM = test system: CCRF-CEM
IGROV-1 = test system: IGROV-1
OVCAR-4 = test system: OVCAR-4
SF-539 = test system: SF-539
NCI-H226 = test system: NCI-H226
CAKI-1 = test system: CAKI-1
OVCAR-8 = test system: OVCAR-8
COLO 205 = test system: COLO 205
UACC-62 = test system: UACC-62
UO-31 = test system: UO-31
RXF 393 = test system: RXF 393
MCF7 = test system: MCF7
HOP-62 = test system: HOP-62
SW-620 = test system: SW-620
SK-MEL-5 = test system: SK-MEL-5
NCI-H460 = test system: NCI-H460
SF-295 = test system: SF-295
UACC-257 = test system: UACC-257
U-251 = test system: U-251

SMILES | GI50 (PC-3) | GI50 (CCRF-CEM) | GI50 (IGROV-1) | GI50 (OVCAR-4) | GI50 (SF-539) | GI50 (NCI-H226) | GI50 (CAKI-1) | GI50 (OVCAR-8) | GI50 (COLO 205) | GI50 (UACC-62) | GI50 (UO-31) | GI50 (RXF 393) | GI50 (MCF7) | GI50 (HOP-62) | GI50 (SW-620) | GI50 (SK-MEL-5) | GI50 (NCI-H460) | GI50 (SF-295) | GI50 (UACC-257) | GI50 (U-251)
CCC/C(Cl)=N/OC(=O)Nc1cc(C(F)(F)F)ccc1OC | 16.2 µM (inactive) | 1.91 µM (inactive) | 16.6 µM (inactive) | 3.23 µM (inactive) | 15.3 µM (inactive) | 15.5 µM (inactive) | 4.78 µM (inactive) | 16.1 µM (inactive) | 1.95 µM (inactive) | 15.2 µM (inactive) | 16.4 µM (inactive) | 6.31 µM (inactive) | 12.4 µM (inactive) | 18.1 µM (inactive) | 3.55 µM (inactive) | 7.93 µM (inactive) | 19.5 µM (inactive) | 18.3 µM (inactive) | 16.5 µM (inactive) | 17.7 µM (inactive)
O=C(N[C@@H](Cc1ccccc1)B(O)O)[C@H](Cc1cccc2ccccc12)NC(=O)N1CCOCC1 | 0.00569 µM (active) | 0.000186 µM (active) | 0.00618 µM (active) | 0.00454 µM (active) | 0.000265 µM (active) | 0.00029 µM (active) | 0.00555 µM (active) | 0.0254 µM (active) | 0.00552 µM (active) | 0.00248 µM (active) | 0.232 µM (active) | 0.00167 µM (active) | 0.000476 µM (active) | 0.00524 µM (active) | 0.00258 µM (active) | 0.00154 µM (active) | 0.0215 µM (active) | 0.00478 µM (active) | 0.00219 µM (active) | 0.00423 µM (active)
O=c1c2cn[nH]c2nc2scc(-c3ccc(Cl)cc3)n12 | > 100 µM (inactive) | > 100 µM (inactive) | > 100 µM (inactive) | > 100 µM (inactive) | > 100 µM (inactive) | > 100 µM (inactive) | > 100 µM (inactive) | > 100 µM (inactive) | > 100 µM (inactive) | > 100 µM (inactive) | > 100 µM (inactive) | > 100 µM (inactive) | > 100 µM (inactive) | > 100 µM (inactive) | > 100 µM (inactive) | > 100 µM (inactive) | > 100 µM (inactive) | > 100 µM (inactive) | > 100 µM (inactive) | > 100 µM (inactive)
[O-]/[N+](=C\c1ccccc1OC(=S)S)c1ccc(Cl)cc1 | 23.9 µM (inactive) | 2.42 µM (inactive) | 12.1 µM (inactive) | 13.9 µM (inactive) | 35.6 µM (inactive) | 48.4 µM (inactive) | 13.6 µM (inactive) | 8.24 µM (inactive) | 3.92 µM (inactive) | 11.9 µM (inactive) | 19.8 µM (inactive) | 45.7 µM (inactive) | 13 µM (inactive) | 47.9 µM (inactive) | 11.2 µM (inactive) | 0.224 µM (active) | 0.292 µM (active) | 0.177 µM (active) | 21.5 µM (inactive) | 19.8 µM (inactive)
COc1ccc2c(C)cc(N/N=C/c3ccc(OC)c4ccccc34)nc2c1 | 16.9 µM (inactive) | 1.93 µM (inactive) | 14.9 µM (inactive) | 19 µM (inactive) | 15.8 µM (inactive) | 12.9 µM (inactive) | 13.4 µM (inactive) | 18.5 µM (inactive) | 16.7 µM (inactive) | 14.3 µM (inactive) | 12.6 µM (inactive) | 16.7 µM (inactive) | 19.4 µM (inactive) | 18.2 µM (inactive) | 7.06 µM (inactive) | 16.4 µM (inactive) | 16.6 µM (inactive) | 16.8 µM (inactive) | 19.3 µM (inactive) | 3.66 µM (inactive)
CC[C@@]1(O)C(=O)OCc2c1cc1n(c2=O)Cc2cc3c(CN(C)C)c(O)ccc3nc2-1 [TOPOTECAN HYDROCHLORIDE] | 0.0771 µM (active) | 0.0125 µM (active) | 0.141 µM (active) | 0.412 µM (active) | 0.0168 µM (active) | 0.0225 µM (active) | 0.015 µM (active) |  | 0.293 µM (active) |  |  | 0.0395 µM (active) | 0.0149 µM (active) | 0.0125 µM (active) |  | 0.0325 µM (active) | 0.0163 µM (active) | 0.0148 µM (active) | 0.0834 µM (active) | 
Cc1ccc2nnc(NS(=O)(=O)c3cc(C)c(Cl)cc3S)n2n1 | > 100 µM (inactive) | > 100 µM (inactive) | > 100 µM (inactive) | > 100 µM (inactive) | > 100 µM (inactive) | > 100 µM (inactive) | > 100 µM (inactive) | > 100 µM (inactive) | > 100 µM (inactive) | > 100 µM (inactive) | 68.5 µM (inactive) | > 100 µM (inactive) | > 100 µM (inactive) | > 100 µM (inactive) | > 100 µM (inactive) | > 100 µM (inactive) | > 100 µM (inactive) |  | > 100 µM (inactive) | > 100 µM (inactive)
COc1cc(CNC(=O)CCCCCCCC/C=C/Br)ccc1O | > 10 µM (inactive) | > 10 µM (inactive) | > 10 µM (inactive) | > 10 µM (inactive) | > 10 µM (inactive) | > 10 µM (inactive) | > 10 µM (inactive) | > 10 µM (inactive) | > 10 µM (inactive) | > 10 µM (inactive) | > 10 µM (inactive) | > 10 µM (inactive) | > 10 µM (inactive) | > 10 µM (inactive) | > 10 µM (inactive) | > 10 µM (inactive) | > 10 µM (inactive) | > 10 µM (inactive) | > 10 µM (inactive) | > 10 µM (inactive)
CCCCc1ccc(Nc2nc(S)c3ncn(COCCO)c3n2)cc1 | 32.9 µM (inactive) | 25.7 µM (inactive) | 36 µM (inactive) | 45.4 µM (inactive) | > 100 µM (inactive) | 88.7 µM (inactive) | > 100 µM (inactive) | 45.4 µM (inactive) | 20.6 µM (inactive) | 41.4 µM (inactive) | > 100 µM (inactive) | 56 µM (inactive) | 24.2 µM (inactive) | 31 µM (inactive) | 69 µM (inactive) | 62.1 µM (inactive) | 41.5 µM (inactive) | 64.7 µM (inactive) | 30.4 µM (inactive) | 35 µM (inactive)
c1ccc(-c2c3c(nc4c2CC[C@H]4NC2=NCCN2)[C@@H](NC2=NCCN2)CC3)cc1 | 98.2 µM (inactive) | > 100 µM (inactive) | 40 µM (inactive) | > 100 µM (inactive) | 27.4 µM (inactive) | > 73.1 µM (inactive) | > 100 µM (inactive) | > 100 µM (inactive) | > 100 µM (inactive) | > 100 µM (inactive) | > 100 µM (inactive) | > 100 µM (inactive) | > 100 µM (inactive) | > 100 µM (inactive) | > 100 µM (inactive) | > 100 µM (inactive) | 29.2 µM (inactive) | > 100 µM (inactive) | > 90.6 µM (inactive) | 9.31 µM (inactive)
CCCCCCCCCc1cc(O)c(O)cc1CCCCCCCCC | > 10 µM (inactive) | > 10 µM (inactive) | > 10 µM (inactive) | > 10 µM (inactive) | > 10 µM (inactive) | > 10 µM (inactive) | > 10 µM (inactive) | > 10 µM (inactive) | > 10 µM (inactive) | > 10 µM (inactive) | > 10 µM (inactive) | > 10 µM (inactive) | > 10 µM (inactive) | > 10 µM (inactive) | > 10 µM (inactive) | > 10 µM (inactive) | > 10 µM (inactive) | > 10 µM (inactive) | > 10 µM (inactive) | > 10 µM (inactive)
COc1ccc(N2C(=O)C3c4[nH]c5ccccc5c4C4CCCCCCCC4C3C2=O)cc1 (stereo unspecified) | > 10 µM (inactive) | 2.07 µM (inactive) | > 10 µM (inactive) | > 10 µM (inactive) | 6.95 µM (inactive) | > 10 µM (inactive) | > 10 µM (inactive) | > 10 µM (inactive) | > 10 µM (inactive) | > 10 µM (inactive) | > 10 µM (inactive) | > 10 µM (inactive) | > 10 µM (inactive) | > 10 µM (inactive) | > 10 µM (inactive) | > 10 µM (inactive) | > 10 µM (inactive) | > 10 µM (inactive) |  | > 10 µM (inactive)
O=C1CC(O)c2cscc21 (stereo unspecified) | > 100 µM (inactive) | 21.6 µM (inactive) | > 100 µM (inactive) | > 100 µM (inactive) | > 100 µM (inactive) | > 100 µM (inactive) | > 100 µM (inactive) | 65.9 µM (inactive) | 34 µM (inactive) | > 100 µM (inactive) |  | > 100 µM (inactive) | > 100 µM (inactive) | > 100 µM (inactive) | 37.8 µM (inactive) | > 100 µM (inactive) | > 100 µM (inactive) | > 100 µM (inactive) | > 100 µM (inactive) | > 100 µM (inactive)
COc1cc(/C=C/C(=O)OCC23CC[C@@]4(C(=O)O)CCC(C)[C@H](C)C4C2=CCC2[C@@]4(C)CC[C@H](O)C(C)(C)C4CC[C@]23C)ccc1O (stereo partly specified) | 16.3 µM (inactive) | 4.59 µM (inactive) | 14.5 µM (inactive) | 17.5 µM (inactive) | 14.7 µM (inactive) | 27.5 µM (inactive) | 44.4 µM (inactive) | 15.9 µM (inactive) | > 10 µM (inactive) | 19.6 µM (inactive) |  | 12.7 µM (inactive) | 10.7 µM (inactive) | 13.4 µM (inactive) | 37.7 µM (inactive) | 16.1 µM (inactive) | 11.4 µM (inactive) | 23.8 µM (inactive) | 17.7 µM (inactive) | 27.9 µM (inactive)
